# Measurements reported in patent US5783178A, “Polymer linked biological agents” (Supratek Pharma. Inc., priority 1994, dated 1998).
# Read-outs that look alike come from different tables or passages of the source.
# Columns and labels:
# [1] = Solution stability in PBS (dissolved daunorubicin monitored by fluorescence); assay type: physicochemical; conditions: 37°, PBS pH 7.0, 0.2 μM
# [2] = test system: SKOV3 line of transformed cells (SK cells); assay: Cytotoxicity towards SK cells (XTT); assay type: cell-based; conditions: Homo sapiens
# [3] = test system: murine myeloma cell line Sp2/0 (Sp2); assay: Cytotoxicity towards Sp2 cells (XTT); assay type: cell-based; conditions: Mus musculus, Example 7
# Dox-MCF-7 = assay: Micellar agent delivery, cytotoxicity against Dox-MCF-7; assay type: cell-based; conditions: Homo sapiens
# MCF-7AU = assay: Micellar agent delivery, cytotoxicity against MCF-7AU; assay type: cell-based; conditions: Homo sapiens
# [4] = test system: SKVLB cell line (SK-resistant cells); assay: Cytotoxicity towards SK-resistant cells (XTT); assay type: cell-based
# [5] = test system: MCF-7 line of human breast cancer cells; assay: Micellar agent delivery, cytotoxicity against MCF-7; assay type: cell-based; conditions: MCF7
# in vivo = conditions: mouse, ip
# [6] = test system: Sp2-resistant myeloma cells; assay: Tumor treatment, Sp2-resistant tumors; assay type: in vivo, female Balb C mice; conditions: i.v. at MTD
# Sp2-resistant cell line = assay: Cytotoxicity towards Sp2-resistant cells (XTT); assay type: cell-based, murine; conditions: Mus musculus, Example 7
# Sp2 myeloma cell line = assay: Tumor treatment, Sp2 tumors; assay type: in vivo, female Balb C mice; conditions: i.v. at MTD
# SK cells = assay: Activity of conjugated TNFα on SK cells (XTT); assay type: cell-based; conditions: 24 hours
molecule,measurement,setting,value
"COc1cccc2c1C(=O)c1c(O)c3c(c(O)c1C2=O)C[C@@](O)(C(C)=O)C[C@@H]3O[C@H]1C[C@H](N)[C@H](O)[C@H](C)O1 [Free daunorubicin, daunorubicin]",I585 (% of initial),[1]; 0 hours incubation,100 % of initial
same,"remaining at 6 h, 0.2 µM","[1]; 6 hours incubation, read-out: I585 (% of initial)",92%
same,"remaining at 27 h, 0.2 µM","[1]; 27 hours incubation, read-out: I585 (% of initial)",89%
same,"remaining at 43 h, 0.2 µM","[1]; 43 hours incubation, read-out: I585 (% of initial)",68%
same,"remaining at 78 h, 0.2 µM","[1]; 78 hours incubation, read-out: I585 (% of initial)",54%
same,"remaining at 120 h, 0.2 µM","[1]; 120 hours incubation, read-out: I585 (% of initial)",37%
same,IC50,"[2]; SK-OV-3, Example 5, 1 h exposure, 4 days culture, daunorubicin content basis, read-out: IC50",0.32 mg/L
same,IC50,"[2]; SK-OV-3, Example 6, methods of Example 5",5.2 mg/L
same,IC50,[3],0.22 mg/L
same,inhibition at 0.016 µg/mL,Dox-MCF-7,2%
same,inhibition at 0.08 µg/mL,Dox-MCF-7,7%
same,inhibition at 0.4 µg/mL,Dox-MCF-7,39%
same,inhibition at 2 µg/mL,Dox-MCF-7,62%
same,inhibition at 10 µg/mL,Dox-MCF-7,86%
same,inhibition at 50 µg/mL,Dox-MCF-7,100%
same,inhibition at 0.016 µg/mL,MCF-7AU,3%
same,inhibition at 0.08 µg/mL,MCF-7AU,9%
same,inhibition at 0.4 µg/mL,MCF-7AU,37%
same,inhibition at 2 µg/mL,MCF-7AU,65%
same,inhibition at 10 µg/mL,MCF-7AU,89%
same,inhibition at 50 µg/mL,MCF-7AU,100%
same,IC50,"[4]; Example 5, 1 h exposure, 4 days culture, daunorubicin content basis",2.55 mg/L
same,IC50,"[4]; Example 6, methods of Example 5",45 mg/L
same,inhibition at 0.016 µg/mL,[5],15%
same,inhibition at 0.08 µg/mL,[5],43%
same,inhibition at 0.4 µg/mL,[5],69%
same,inhibition at 2 µg/mL,[5],91%
same,inhibition at 10 µg/mL,[5],100%
same,inhibition at 50 µg/mL,[5],100%
same,LD50 at 336 h,in vivo,7 mg/kg
same,MTD at 336 h,in vivo,5 mg/kg
same,V/V0,[6]; day 0 after first treatment,1
same,V/V0,[6]; day 3 after first treatment,2.7
same,V/V0,[6]; day 6 after first treatment,3.4
same,V/V0,[6]; day 8 after first treatment,5.1
same,V/V0,[6]; day 10 after first treatment,6.6
same,V/V0,[6]; day 13 after first treatment,11.6
same,V/V0,[6]; day 16 after first treatment,20.9
same,V/V0,[6]; day 20 after first treatment,25.9
same,V/V0,[6]; day 23 after first treatment,38.4
same,V/V0,[6]; day 27 after first treatment,50.9
same,V/V0,[6]; day 31 after first treatment,68.3
same,V/V0,[6]; day 34 after first treatment,73.0
same,V/V0,[6]; day 38 after first treatment,83.4
same,V/V0,[6]; day 42 after first treatment,113.8
same,V/V0,[6]; day 45 after first treatment,111.9
same,IC50,Sp2-resistant cell line,2.6 mg/L
same,V/V0,Sp2 myeloma cell line; day 0 after first treatment,1
same,V/V0,Sp2 myeloma cell line; day 4 after first treatment,1.5
same,V/V0,Sp2 myeloma cell line; day 7 after first treatment,2.4
same,V/V0,Sp2 myeloma cell line; day 12 after first treatment,8.8
same,V/V0,Sp2 myeloma cell line; day 14 after first treatment,10.9
same,V/V0,Sp2 myeloma cell line; day 17 after first treatment,16.8
same,V/V0,Sp2 myeloma cell line; day 21 after first treatment,17.5
same,V/V0,Sp2 myeloma cell line; day 25 after first treatment,16.1
same,V/V0,Sp2 myeloma cell line; day 28 after first treatment,15.8
same,V/V0,Sp2 myeloma cell line; day 32 after first treatment,15.9
same,V/V0,Sp2 myeloma cell line; day 35 after first treatment,15.7
human tumor necrosis factorα [TNFα],"Inhibition, % (± SD)",SK cells; TNFα concentration 0.01 (unit not given),0%
same,"Inhibition, % (± SD)",SK cells; TNFα concentration 0.05 (unit not given),2 (± 2) %
same,"Inhibition, % (± SD)",SK cells; TNFα concentration 0.2 (unit not given),5 (± 3) %
same,"Inhibition, % (± SD)",SK cells; TNFα concentration 1.0 (unit not given),4 (± 4) %
same,"Inhibition, % (± SD)",SK cells; TNFα concentration 5 (unit not given),10 (± 5) %
same,"Inhibition, % (± SD)",SK cells; TNFα concentration 20 (unit not given),22 (± 5) %
same,"Inhibition, % (± SD)",SK cells; TNFα concentration 50 (unit not given),35 (± 7) %
same,"Inhibition, % (± SD)",SK cells; TNFα concentration 100 (unit not given),44 (± 6) %
same,"Inhibition, % (± SD)",SK cells; TNFα concentration 200 (unit not given),80 (± 14) %
